Reference: paper PMC4741719, “Acquisition of a single EZH2 D1 domain mutation confers acquired resistance to EZH2-targeted inhibitors” (Oncotarget, 2015)
Where two headings read alike, the source gives them in different places.

Experiments:
[1] = system: H3K27me3 in E-200 Pfeiffer cells; assay: Cellular H3K27me3 AlphaLISA, E-200 Pfeiffer cells; assay type: cell-based; settings: Homo sapiens; Pfeiffer E-200; Figure 3B
Experimental: Cells were plated at 500 cells/well in 10% DMEM, 50 uL/well in 384 well plates. […] DMSO (0.1%) was used as a vehicle control. Plates were incubated for 72 hours at 37°C. […] Plates were read using AlphaLISA protocol on Envision (Perkin Elmer). […] Pfeiffer cells were treated overnight with 100 μg/mL of N-ethyl-N-nitrosourea (ENU; Sigma Aldrich, St. […] After 7 days, cells were dosed again with fresh compound and grown until outgrowth (3 to 4 weeks). […] Ion semiconductor sequencing (Ion Torrent) and single molecule real time sequencing (PacBio) were performed at Molecular MD and Expression analysis (Quintiles), respectively.

[2] = system: Pfeiffer cells stably-expressing Y111D/A677G EZH2 mutant; assay: Viability assay, Pfeiffer cells stably-expressing Y111D/A677G EZH2; settings: Homo sapiens, read-out: IC50 cell viability
[3] = system: E-100 Pfeiffer cells; assay: Viability assay, EPZ-6438-resistant E-100 Pfeiffer cells; assay type: cell-based; settings: Homo sapiens, read-out: IC50 cell viability
[4] = system: H3K27me3 in Pfeiffer cells stably-expressing Y111D/A677G EZH2 mutant; assay: Cellular H3K27me3 AlphaLISA, Pfeiffer cells stably-expressing Y111D/A677G EZH2; settings: Homo sapiens, read-out: IC50 H3K27me3
[5] = system: Pfeiffer cells stably expressing Y111D/A677G/H689A; assay: Viability assay, Pfeiffer cells stably expressing Y111D/A677G/H689A EZH2; settings: Homo sapiens, read-out: IC50 cell viability
[6] = system: Pfeiffer cells stably-expressing Y111D/Y641F EZH2 mutant; assay: Viability assay, Pfeiffer cells stably-expressing Y111D/Y641F EZH2
[7] = system: H3K27me3 in Pfeiffer cells (Parental); assay: Cellular H3K27me3 AlphaLISA, parental Pfeiffer cells; assay type: cell-based; settings: Homo sapiens, Figure 3B
Experimental: Cells were plated at 500 cells/well in 10% DMEM, 50 uL/well in 384 well plates. […] DMSO (0.1%) was used as a vehicle control. Plates were incubated for 72 hours at 37°C. […] Plates were read using AlphaLISA protocol on Envision (Perkin Elmer).

[8] = system: Pfeiffer cells (Parental); assay: Viability assay (Cell-Titer-Glo, 6 days), parental Pfeiffer cells; assay type: cell-based; settings: Homo sapiens
[9] = system: E-200 Pfeiffer cells; assay: Viability assay, EPZ-6438-resistant E-200 Pfeiffer cells; assay type: cell-based; settings: Homo sapiens, read-out: IC50 cell viability
[10] = system: DLBCL and rhabdoid INI1-deficient patients; design: method as in earlier work; settings: phase 1 clinical trial, monotherapy; cited from earlier work

Row | IC50 [1] [nM] | IC50 [4] [nM] | IC50 [5] [nM] | SMILES | IC50 [2] [nM] | IC50 ([3]; E-100, Unwash, Figure 1E) [nM] | IC50 ([3]; E-100, Wash 8 weeks (drug withdrawal), Figure 1E) [nM] | IC50 ([3]; E-100 Pfeiffer, Figure 1C) [nM] | IC50 ([6]; Homo sapiens, Pfeiffer, read-out: IC50 cell viability) [nM] | increase in IC50 values ([6]; Y111D/Y641F, both growth and H3K27 tri-methylation) | IC50 [7] [nM] | IC50 ([8]; Parental Pfeiffer, Figure 1C, three independent experiments) [nM] | IC50 ([8]; Pfeiffer Parental, Figure 3C) [nM] | IC50 ([8]; Pfeiffer Parental, Figure 4B) [nM] | IC50 ([9]; E-200, Unwash, Figure 1E) [nM] | IC50 ([9]; E-200, Wash 8 weeks (drug withdrawal), Figure 1E) [nM] | IC50 ([9]; E-200 Pfeiffer, Figure 1C) [nM] | clinical response [10]
1 | > 10000 | 5000 ± 1590 | 25 ± 9 | CC[C@H](C)n1cc(C)c2c(C(=O)NCc3c(C)cc(C)[nH]c3=O)cc(-c3ccc(N4CCNCC4)nc3)cc21 [GSK126] | 2670 ± 1370 | 4030 ± 370 | 1220 ± 89 | 3960 ± 1040 | 111 ± 35 | 3–4 fold | 36 ± 27 | 23 ± 5 | 33 ± 7 | 30 ± 5 | 3150 ± 508 | 2010 ± 1560 | 3980 ± 994 | 
2 |  |  |  | CCN(c1cc(-c2ccc(CN3CCOCC3)cc2)cc(C(=O)NCc2c(C)cc(C)[nH]c2=O)c1C)C1CCOCC1 [EPZ-6438] |  |  |  |  |  |  |  |  |  |  |  |  |  | durable objective responses
